Counter-ions that a name gives are not always drawn.
Experiments:
Solubility = format: physicochemical; conditions: water; compared with monomethyl fumarate
[1] = Rat plasma conversion (ex-vivo); format: in vitro ADME
[2] = Stability of prodrugs on storage at RT and RF; format: physicochemical; conditions: in % (unit assumed); for Stability, value at 0 DAY: 0 day (14 Nov. 2018), dissolved in acetonitrile for analysis; for Stability, value at 7 DAY, RT / Stability, value at 15 DAY, RT: storage at room temp/25° C.; for Stability, value at 7 DAY, RT / Stability, value at 7 DAY, RF / Stability, value at 15 DAY, RT / Stability, value at 15 DAY, RF: acetonitrile for analysis; for Stability, value at 7 DAY, RF / Stability, value at 15 DAY, RF: storage under refrigeration/4° C.
Procedure: Compounds dissolved in ACN for analysis RT: Room temp/25° C. RF: Refrigeration/4° C.

[3] = Oral (PO) pharmacokinetics study in SD rat; format: in vivo
Procedure: Exemplary compounds of the present invention were subjected to oral (PO) Pharmacokinetics (PK) study in SD rat and data was compared with parent MMF. 6 overnight fasted male SD rats were dosed with MMF dose of 10 mpk and test compounds at the desired dose level of 10 mpk equivalent of MMF by PO route. Dosing vehicle used was MQ water. Blood was collected at different time points by retro orbital route. Plasma samples were stored at −80° C. for LC-MS analysis. Animals were sacrificed post final blood collection. Dosing and collection was done as per the in vivo protocol given below. PK analysis was done using LC-MS (ABI3200). Data analysis was performed using PRISM software to determine PK parameters such Cmax (the maximum (or peak) serum concentration that a drug achieves in a specified compartment or test area of the body after the drug has been administrated and before the administration of a second dose), Tmax (time at which the Cmax is observed) AUC (definite integral in a plot of drug concentration in blood plasma vs. time), MRT (Mean Residence Time) and t1/2 (The time required for one half of the total amount of a particular substance in a biological system to be degraded by biological processes when the rate of removal is nearly exponential)

Row | Solubility (Solubility) | Rat plasma conversion [1] | Stability, value at 0 DAY [2] | Stability, value at 7 DAY, RT [2] | Stability, value at 7 DAY, RF [2] | Stability, value at 15 DAY, RT [2] | Stability, value at 15 DAY, RF [2] | pharmacokinetics in delivery of monomethyl fumarate (MMF) in comparison with direct administration of MMF ([3]; FIG. 1 legend, in words) | AUC in rat plasma as compared to the parent drug MMF ([3]; SD rat, PO, in words) | T1/2 in rat plasma as compared to the parent drug MMF ([3]; SD rat, PO, in words) | conversion in vivo ([3]; in vivo, rat) | Compound
1 | highly soluble |  |  |  |  |  |  |  |  |  |  | COC(=O)/C=C/C(=O)O [MMF, monomethyl fumarate]
2 |  | convert instantly | 97.81 | 97.61 | 97.61 | 97.21 | 97.95 |  |  |  |  | COC(=O)/C=C/C(=O)OC[n+]1cccc(C(N)=O)c1.[I-] [SPR11574, (E)-3-carbamoyl-1-(((4-methoxy-4-oxobut-2-enoyl)oxy)methyl) pyridin-1-ium iodide]
3 |  | convert instantly | 97.7 | 97.61 | 97.82 | 97.06 | 97.66 | enhanced | better enhanced | better enhanced |  | CNC(=O)c1ccc[n+](COC(=O)/C=C/C(=O)OC)c1.[I-] [SPR11575, (E)-1-(((4-methoxy-4-oxobut-2-enoyl)oxy)methyl)-3-(methylcarbamoyl) pyridin-1-ium iodide]
4 |  | convert instantly | 97.68 | 96.97 | 97.7 | 96.28 | 97.82 |  |  |  |  | COC(=O)/C=C/C(=O)OC[n+]1cccc(C(=O)N(C)C)c1.[I-] [SPR11576, (E)-3-(dimethylcarbamoyl)-1-(((4-methoxy-4-oxobut-2-enoyl)oxy)methyl)pyridin-1-ium iodide]
5 |  | convert instantly | 99.35 | 99.79 | 99.89 | 100 | 100 |  |  |  |  | COC(=O)/C=C/C(=O)OCOC(=O)c1cccnc1 [SPR11577, methyl((nicotinoyloxy) methyl)fumarate]
6 |  | doesn't convert completely |  |  |  |  |  |  |  |  | doesn't convert completely | COC(=O)/C=C/C(=O)OCOC(=O)c1ccc[n+](C)c1.[I-] [SPR11578, (E)-3-((((4-methoxy-4-oxobut-2-enoyl)oxy)methoxy)carbonyl)-1-methylpyridin-1-ium iodide]

— patent US11142501B2, “Prodrugs of monomethyl fumarate” (IXCHEL PHARMA, LLC, priority 2019, dated 2021)
